Assay results published in patent US9303027B2 (dated 2016).

Compound	melting point [°C]
CS(=O)(=O)Nc1cccc([C@@H](CN2CCCC2)NC(=O)C2(c3ccc4oc(=O)[nH]c4c3)CC2)c1 (stereo in doubt)	114 to 116
O=C(N[C@H](CN1CCCC1)c1ccccc1)C1(c2cccc(-c3nnn[nH]3)c2)CC1 (stereo in doubt)	137 to 139
NC(=O)c1cccc(C2(C(=O)N[C@H](CN3CCCC3)c3ccccc3)CC2)c1 (stereo in doubt)	120 to 121
O=C(N[C@H](CN1CCCC1)c1ccccc1)C1(c2ccc3ccc(=O)[nH]c3c2)CC1 (stereo in doubt)	101 to 103
O=C(O)COc1cccc(C2(C(=O)N[C@H](CN3CCCC3)c3ccccc3)CC2)c1 (stereo in doubt)	124 to 125
NC(=O)c1ccc(C2(C(=O)N[C@H](CN3CCCC3)c3ccccc3)CC2)cc1 (stereo in doubt)	201

Other lines, results leading:

melting point [°C]	Compound
101.8 to 102.2	CC(=O)c1cc(C2(C(=O)N[C@H](CN3CCCC3)c3ccccc3)CC2)ccc1O (stereo in doubt)
103 to 105	COc1ccc(C2(C(=O)N[C@H](CN3CCCC3)c3ccccc3)CC2)cc1NS(C)(=O)=O (stereo in doubt)
92 to 94	Cc1ccc(C2(C(=O)N[C@H](CN3CCCC3)c3ccccc3)CC2)cc1NS(C)(=O)=O (stereo in doubt)
67 to 69	CS(=O)(=O)Nc1cc(C2(C(=O)N[C@H](CN3CCCC3)c3ccccc3)CC2)ccc1F (stereo in doubt)
158.5 to 158.8	C/C(=N/O)c1cc(C2(C(=O)N[C@H](CN3CCCC3)c3ccccc3)CC2)ccc1O (stereo in doubt)
207 to 209	O=C(N[C@H](CN1CCCC1)c1ccccc1)C1(c2ccc3[nH]c(=O)[nH]c3c2)CC1 (stereo in doubt)
78 to 80	Cn1nnc2cc(C3(C(=O)N[C@H](CN4CCCC4)c4ccccc4)CC3)ccc21 (stereo in doubt)
127 to 129	O=C(N[C@H](CN1CCCC1)c1ccccc1)C1(c2ccc3[nH]cnc3c2)CC1 (stereo in doubt)
82 to 83	O=C(N[C@H](CN1CCCC1)c1ccccc1)C1(c2ccc3[nH]ncc3c2)CC1 (stereo in doubt)
